Reference: patent publication US20240158750A1, “STROMA-FREE NK CELL DIFFERENTIATION FROM HUMAN PLURIPOTENT STEM CELLS” (The Children's Medical Center Corporation, priority 2021, published 2024)

Tests used:
[1] = test system: class I HDAC (e.g., HDAC1, HDAC2, HDAC3); conditions: cited from earlier work
[2] = test system: iPSC-derived CD34+CD45+ HSPCs; experiment: ATAC-seq of iPSC-derived CD34+CD45+ HSPCs treated during EHT; type: cell-based, human; conditions: 500 nM or 1 μM during conversion of HE into HSPCs for 5 days, versus DMSO
Experimental: FIGS. 6A-6C are a series of schematics and graphs showing that G9a modulates chromatin accessibility of lymphoid genes. FIG. 6A is a schematic showing the experimental design. FIG. 6B is a heatmap showing assay for transposase-accessible chromatin using sequencing (ATAC-seq) peaks enriched in iPSC-derived CD34+CD45+ HSPCs that were treated with control vehicle (“DMSO”), 500 nM of UNC0224 (“UNC low”), or 1 μM of UNC0224 (“UNC high”) during the conversion of CD34+CD45− HE into CD34+CD45+ HSPCs for 5 days; 5 peaks are shown, labeled K1-K5.
FIGS. 6A-6C show the mechanism by which G9a (EHMT2) regulates lymphoid fate decision in iPSC-derived HSPCs (iPSC-HSPCs). The iPSCs were first differentiated into CD34+ HEs, and the cells were then treated with DMSO or G9a inhibitor UNC0224 during the EHT stage, which allowed the HEs to specify into CD34+CD45+ HSPCs. ATAC-seq analysis was then performed on these iPSC-HSPCs to detect ATAC peaks that indicated accessible chromatin regions (as indicated by higher ATAC-seq scores).

iPSC-derived EHT cells = experiment: RNA-seq of G9a-inhibitor treated EHT cells, PANTHER overrepresentation test; type: cell-based, human; conditions: for Client Text Box Input (fold Enrichment): UNC0224 treated vs control EHT cells
Experimental: RNA-seq analysis was performed on the same samples as in FIG. 6A.

G9a (EHMT2) = experiment: Stroma-free NK cell differentiation with CRISPRi G9a (EHMT2) knockdown; type: cell-based, human; conditions: G9a knockdown by Dox induced CRISPRi for 14 days, representative flow cytometry plot
Description: FIGS. 5A-5C are a series of schematics and graphs showing that G9a (also referred to herein as EHMT2) repression promoted NK cell differentiation. FIG. 5A is a schematic showing the experimental design. FIG. 5B is representative flow cytometry results showing the production of CD5-CD56+NK cells from control iPSCs or iPSCs with EHMT2 (G9a) knockdown by doxycycline (Dox) induced CRISPRi (see, e.g., SEQ ID NO: 50) for 14 days. […] FIG. 5C is a dot pot showing the frequencies of CD5-CD56+NK cells derived from control iPSCs or iPSCs with EHMT2 (G9a) knockdown (n=3, * P<0.05).
The iPSCs were then differentiated into CD34+HE cells and treated with Dox to induce G9a knockdown. The control or Dox treated cells were then differentiated into CD7+ lymphoid progenitors and eventually CD5-CD56+NK cells using the stroma-free methods described herein (see, e.g., Table 1).

MDA-MB-231 cells = conditions: in MDA-MB-231 cells; cited from earlier work
[3] = test system: iPS-derived CD34+ hemogenic endothelial cells; experiment: Stroma-free differentiation on DLL4-coated plates; type: cell-based, human
Experimental: FIG. 2 is a series of flow cytometry plot showing cells produced from a stroma-free differentiation protocol, which can be used to more specifically generate T or NK cells after 5 weeks. The culture conditions for T cells included: (i) EB-derived CD34^+ hemogenic endothelium (HE) on DLL4 coating (10 μg/ml), and (ii) IL-7 (50 ng/ml), SCF (100 ng/ml), Flt3 (100 ng/ml), and TPO (50 ng/ml, first 2 weeks). For more details concerning the stroma-free T cell differentiation protocol, see, e.g., International PCT publication WO 2021/150919, the content of which is incorporated herein by reference in its entirety. The culture conditions for NK cells included: EB-derived CD34^+ hemogenic endothelium (HE) on DLL4 coating (5 μg/ml), IL7 (10 ng/ml), SCF (50 ng/ml), and Flt3 (50 ng/ml).
Hemogenic CD34^+ endothelial cells were first derived from iPS (Example 2). The iPS-derived CD34^+ hemogenic endothelial cells were cultured on tissue culture plates coated with Notch ligands (e.g., DLL4; e.g., 5 μg/ml or 10 μg/ml in PBS, 3 hours in room temperature) using media containing a cocktail of growth factors (e.g., Flt3, SCF, IL7). […]

Question: Which “inhibition of class I HDAC activity” value [1] does the source give for `Cn1cc(/C=C/C(=O)c2cccc(F)c2)cc1/C=C/C(=O)NO` [MC1568] here?
Answer: Its value is “Class II HDAC (e.g., HDAC4 and HDAC5) inhibitor. Displays no inhibition of class I HDAC activity (e.g., HDAC1, HDAC2, HDAC3)”.

Question: For `COc1cc2c(NC3CCN(C)CC3)nc(N3CCCN(C)CC3)nc2cc1OCCCN(C)C` [UNC0224], which “ATAC-seq peaks upregulated in treated cells” value [2] is on record?
Answer: The value was “associated with genes that are responsible for lymphoid differentiation/function”.

Question: What about the “Client Text Box Input (fold Enrichment)” value (iPSC-derived EHT cells; B cell mediated immunity (GO:0019724)) of the same compound?
Answer: The value was 7.3.

Question: What about the “Client Text Box Input (fold Enrichment)” value (iPSC-derived EHT cells; T cell activation (GO:0042110)) of the same compound?
Answer: Its value is 14.53.

Question: What about the “Client Text Box Input (fold Enrichment)” value (iPSC-derived EHT cells; T cell differentiation (GO:0030217)) of the same compound?
Answer: The value was 18.46.

Question: What about the “Client Text Box Input (fold Enrichment)” value (iPSC-derived EHT cells; adaptive immune response (GO:0002250)) of the same compound?
Answer: Its value is 6.79.

Question: What about the “Client Text Box Input (fold Enrichment)” value (iPSC-derived EHT cells; adaptive immune response based on somatic recombination of immune receptors built from immunoglobulin superfamily domains (GO:0002460)) of the same compound?
Answer: Its value is 7.89.

Question: What about the “Client Text Box Input (fold Enrichment)” value (iPSC-derived EHT cells; antigen processing and presentation (GO:0019882)) of the same compound?
Answer: The value was 29.42.

Question: And the “Client Text Box Input (fold Enrichment)” value (iPSC-derived EHT cells; cell activation (GO:0001775))?
Answer: Its value is 5.69.

Question: And the “Client Text Box Input (fold Enrichment)” value (iPSC-derived EHT cells; cell-cell adhesion (GO:0098609))?
Answer: Its value is 4.83.

Question: And the “Client Text Box Input (fold Enrichment)” value (iPSC-derived EHT cells; cellular component assembly (GO:0022607))?
Answer: Its value is 2.21.

Question: What about the “Client Text Box Input (fold Enrichment)” value (iPSC-derived EHT cells; cellular component biogenesis (GO:0044085)) of the same compound?
Answer: Its value is 2.44.

Question: And the “Client Text Box Input (fold Enrichment)” value (iPSC-derived EHT cells; cellular component organization or biogenesis (GO:0071840))?
Answer: The value was 1.63.

Question: What about the “Client Text Box Input (fold Enrichment)” value (iPSC-derived EHT cells; cellular protein-containing complex assembly (GO:0034622)) of the same compound?
Answer: Its value is 4.21.

Question: What about the “Client Text Box Input (fold Enrichment)” value (iPSC-derived EHT cells; gene expression (GO:0010467)) of the same compound?
Answer: The value was 1.58.

Question: And the “Client Text Box Input (fold Enrichment)” value (iPSC-derived EHT cells; immune effector process (GO:0002252))?
Answer: The value was 6.63.

Question: What about the “Client Text Box Input (fold Enrichment)” value (iPSC-derived EHT cells; immune response (GO:0006955)) of the same compound?
Answer: Its value is 2.87.

Question: What about the “Client Text Box Input (fold Enrichment)” value (iPSC-derived EHT cells; immune system process (GO:0002376)) of the same compound?
Answer: Its value is 2.61.

Question: What about the “Client Text Box Input (fold Enrichment)” value (iPSC-derived EHT cells; immunoglobulin mediated immune response (GO:0016064)) of the same compound?
Answer: The value was 7.3.

Question: And the “Client Text Box Input (fold Enrichment)” value (iPSC-derived EHT cells; leukocyte activation (GO:0045321))?
Answer: The value was 6.09.

Question: And the “Client Text Box Input (fold Enrichment)” value (iPSC-derived EHT cells; leukocyte cell-cell adhesion (GO:0007159))?
Answer: The value was 15.11.

Question: What about the “Client Text Box Input (fold Enrichment)” value (iPSC-derived EHT cells; leukocyte mediated immunity (GO:0002443)) of the same compound?
Answer: The value was 7.27.

Question: And the “Client Text Box Input (fold Enrichment)” value (iPSC-derived EHT cells; lymphocyte activation (GO:0046649))?
Answer: Its value is 6.42.

Question: And the “Client Text Box Input (fold Enrichment)” value (iPSC-derived EHT cells; lymphocyte mediated immunity (GO:0002449))?
Answer: Its value is 7.62.

Question: What about the “Client Text Box Input (fold Enrichment)” value (iPSC-derived EHT cells; positive regulation of T cell activation (GO:0050870)) of the same compound?
Answer: The value was 22.09.

Question: What about the “Client Text Box Input (fold Enrichment)” value (iPSC-derived EHT cells; positive regulation of biological process (GO:0048518)) of the same compound?
Answer: Its value is 2.02.

Question: And the “Client Text Box Input (fold Enrichment)” value (iPSC-derived EHT cells; positive regulation of cell activation (GO:0050867))?
Answer: Its value is 6.29.

Question: What about the “Client Text Box Input (fold Enrichment)” value (iPSC-derived EHT cells; positive regulation of cell adhesion (GO:0045785)) of the same compound?
Answer: Its value is 17.95.

Question: What about the “Client Text Box Input (fold Enrichment)” value (iPSC-derived EHT cells; positive regulation of cell-cell adhesion (GO:0022409)) of the same compound?
Answer: The value was 21.54.

Question: What about the “Client Text Box Input (fold Enrichment)” value (iPSC-derived EHT cells; positive regulation of cellular process (GO:0048522)) of the same compound?
Answer: The value was 2.11.

Question: And the “Client Text Box Input (fold Enrichment)” value (iPSC-derived EHT cells; positive regulation of immune system process (GO:0002684))?
Answer: Its value is 5.43.

Question: And the “Client Text Box Input (fold Enrichment)” value (iPSC-derived EHT cells; positive regulation of leukocyte activation (GO:0002696))?
Answer: The value was 6.29.

Question: What about the “Client Text Box Input (fold Enrichment)” value (iPSC-derived EHT cells; positive regulation of leukocyte cell-cell adhesion (GO:1903039)) of the same compound?
Answer: The value was 22.09.

Question: And the “Client Text Box Input (fold Enrichment)” value (iPSC-derived EHT cells; positive regulation of lymphocyte activation (GO:0051251))?
Answer: Its value is 6.53.

Question: And the “Client Text Box Input (fold Enrichment)” value (iPSC-derived EHT cells; production of molecular mediator of immune response (GO:0002440))?
Answer: Its value is 7.58.

Question: What about the “Client Text Box Input (fold Enrichment)” value (iPSC-derived EHT cells; protein-containing complex assembly (GO:0065003)) of the same compound?
Answer: The value was 3.99.

Question: What about the “Client Text Box Input (fold Enrichment)” value (iPSC-derived EHT cells; protein-containing complex subunit organization (GO:0043933)) of the same compound?
Answer: Its value is 3.43.

Question: What about the “Client Text Box Input (fold Enrichment)” value (iPSC-derived EHT cells; regulation of T cell activation (GO:0050863)) of the same compound?
Answer: The value was 16.25.

Question: What about the “Client Text Box Input (fold Enrichment)” value (iPSC-derived EHT cells; regulation of cell activation (GO:0050865)) of the same compound?
Answer: The value was 5.42.

Question: What about the “Client Text Box Input (fold Enrichment)” value (iPSC-derived EHT cells; regulation of cell adhesion (GO:0030155)) of the same compound?
Answer: Its value is 10.77.

Question: And the “Client Text Box Input (fold Enrichment)” value (iPSC-derived EHT cells; regulation of cell-cell adhesion (GO:0022407))?
Answer: The value was 15.11.

Question: And the “Client Text Box Input (fold Enrichment)” value (iPSC-derived EHT cells; regulation of immune system process (GO:0002682))?
Answer: The value was 4.07.

Question: What about the “Client Text Box Input (fold Enrichment)” value (iPSC-derived EHT cells; regulation of leukocyte activation (GO:0002694)) of the same compound?
Answer: Its value is 5.49.

Question: What about the “Client Text Box Input (fold Enrichment)” value (iPSC-derived EHT cells; regulation of leukocyte cell-cell adhesion (GO:1903037)) of the same compound?
Answer: Its value is 16.89.

Question: What about the “Client Text Box Input (fold Enrichment)” value (iPSC-derived EHT cells; regulation of lymphocyte activation (GO:0051249)) of the same compound?
Answer: Its value is 5.82.

Question: And the “RNA-seq gene expression change” value (iPSC-derived EHT cells; treated versus control EHT cells)?
Answer: The value was “upregulation of genes associated with lymphoid development and function”.

Question: Which “CD5-CD56+NK cells” value (G9a (EHMT2)) does the source give for “SEQ ID NO: 50: G9a CRISPRi gRNA: AATGGCCAAAAAGCATGTAG (chemistry not given here)” here?
Answer: The value was 64.7%.

Question: With `COc1cc2c(NC3CCN(C4CCCCC4)CC3)nc(N3CCCN(C(C)C)CC3)nc2cc1OCCCN1CCCCC1` [UNC0646] as the compound, how does the IC50 (MDA-MB-231 cells) read?
Answer: The IC50 was 26 nM.

Question: Which IC50 (MDA-MB-231 cells) does the source give for `COc1cc2c(NC3CCN(CC4CCCCC4)CC3)nc(N3CCCN(C(C)C)CC3)nc2cc1OCCCN1CCCCC1` [UNC0631] here?
Answer: Its IC50 is 25 nM.

Question: Which results are given for “DLL4: Notch ligand Delta-like-4, coated on tissue culture plates”?
Answer: lineage outcome of differentiation ([3]; higher concentration of DLL4 coating (e.g., 10 μg/ml)): promotes T cell differentiation; lineage outcome of differentiation ([3]; lower concentration of DLL4 coating (e.g., 5 μg/ml)): facilitates the generation of CD56^+ NK cells
